According to publication PMC6199744, “Development of Chemical Proteomics for the Folateome and Analysis of the Kinetoplastid Folateome” (ACS Infectious Diseases, 2018):
Where two headings read alike, the source gives them in different places.

Assays:
Type in all cases: binding
[1] = molecular target: T1, HeLa cell extract proteins (Homo sapiens, UniProt Q92616)
T1 construct: endogenous in cells; host or cells: HeLa cell extract

[2] = molecular target: T2, HeLa cell extract proteins (Homo sapiens, UniProt Q99439)
T2 construct: endogenous in cells; host or cells: HeLa cell extract
T2 sequence (Q99439 1-309): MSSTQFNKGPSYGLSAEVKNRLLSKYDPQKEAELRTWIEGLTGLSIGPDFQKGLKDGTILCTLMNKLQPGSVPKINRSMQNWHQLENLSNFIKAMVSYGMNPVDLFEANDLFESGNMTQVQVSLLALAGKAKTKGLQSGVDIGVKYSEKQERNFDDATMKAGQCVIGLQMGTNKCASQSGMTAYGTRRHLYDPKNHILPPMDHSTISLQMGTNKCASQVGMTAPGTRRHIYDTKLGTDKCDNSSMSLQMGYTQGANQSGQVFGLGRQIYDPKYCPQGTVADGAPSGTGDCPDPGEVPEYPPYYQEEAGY

[3] = molecular target: T3, HeLa cell extract proteins (Homo sapiens, UniProt Q9NVI7)
T3 construct: endogenous in cells; host or cells: HeLa cell extract
T3 sequence (Q9NVI7 1-586): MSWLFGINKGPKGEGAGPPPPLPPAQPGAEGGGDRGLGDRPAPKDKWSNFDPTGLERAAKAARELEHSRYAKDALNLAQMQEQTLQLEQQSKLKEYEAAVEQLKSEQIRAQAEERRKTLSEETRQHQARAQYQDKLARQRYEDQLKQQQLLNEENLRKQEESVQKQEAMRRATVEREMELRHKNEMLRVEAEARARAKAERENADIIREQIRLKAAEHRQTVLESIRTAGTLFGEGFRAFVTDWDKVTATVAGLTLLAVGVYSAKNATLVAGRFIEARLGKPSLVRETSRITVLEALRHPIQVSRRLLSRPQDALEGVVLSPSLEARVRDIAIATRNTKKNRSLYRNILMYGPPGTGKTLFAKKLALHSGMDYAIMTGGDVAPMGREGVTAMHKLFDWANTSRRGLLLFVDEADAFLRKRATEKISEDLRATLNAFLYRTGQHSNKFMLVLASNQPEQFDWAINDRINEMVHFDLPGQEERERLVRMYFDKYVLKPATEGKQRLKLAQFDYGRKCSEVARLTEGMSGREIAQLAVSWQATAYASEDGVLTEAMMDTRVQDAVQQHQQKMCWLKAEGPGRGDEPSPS

[4] = molecular target: T4, HeLa cell extract proteins (Homo sapiens, UniProt P60900)
T4 construct: endogenous in cells; host or cells: HeLa cell extract

[5] = molecular target: T5, HeLa cell extract proteins (Homo sapiens, UniProt O95487)
T5 construct: endogenous in cells; host or cells: HeLa cell extract
T5 sequence (O95487 1-1268): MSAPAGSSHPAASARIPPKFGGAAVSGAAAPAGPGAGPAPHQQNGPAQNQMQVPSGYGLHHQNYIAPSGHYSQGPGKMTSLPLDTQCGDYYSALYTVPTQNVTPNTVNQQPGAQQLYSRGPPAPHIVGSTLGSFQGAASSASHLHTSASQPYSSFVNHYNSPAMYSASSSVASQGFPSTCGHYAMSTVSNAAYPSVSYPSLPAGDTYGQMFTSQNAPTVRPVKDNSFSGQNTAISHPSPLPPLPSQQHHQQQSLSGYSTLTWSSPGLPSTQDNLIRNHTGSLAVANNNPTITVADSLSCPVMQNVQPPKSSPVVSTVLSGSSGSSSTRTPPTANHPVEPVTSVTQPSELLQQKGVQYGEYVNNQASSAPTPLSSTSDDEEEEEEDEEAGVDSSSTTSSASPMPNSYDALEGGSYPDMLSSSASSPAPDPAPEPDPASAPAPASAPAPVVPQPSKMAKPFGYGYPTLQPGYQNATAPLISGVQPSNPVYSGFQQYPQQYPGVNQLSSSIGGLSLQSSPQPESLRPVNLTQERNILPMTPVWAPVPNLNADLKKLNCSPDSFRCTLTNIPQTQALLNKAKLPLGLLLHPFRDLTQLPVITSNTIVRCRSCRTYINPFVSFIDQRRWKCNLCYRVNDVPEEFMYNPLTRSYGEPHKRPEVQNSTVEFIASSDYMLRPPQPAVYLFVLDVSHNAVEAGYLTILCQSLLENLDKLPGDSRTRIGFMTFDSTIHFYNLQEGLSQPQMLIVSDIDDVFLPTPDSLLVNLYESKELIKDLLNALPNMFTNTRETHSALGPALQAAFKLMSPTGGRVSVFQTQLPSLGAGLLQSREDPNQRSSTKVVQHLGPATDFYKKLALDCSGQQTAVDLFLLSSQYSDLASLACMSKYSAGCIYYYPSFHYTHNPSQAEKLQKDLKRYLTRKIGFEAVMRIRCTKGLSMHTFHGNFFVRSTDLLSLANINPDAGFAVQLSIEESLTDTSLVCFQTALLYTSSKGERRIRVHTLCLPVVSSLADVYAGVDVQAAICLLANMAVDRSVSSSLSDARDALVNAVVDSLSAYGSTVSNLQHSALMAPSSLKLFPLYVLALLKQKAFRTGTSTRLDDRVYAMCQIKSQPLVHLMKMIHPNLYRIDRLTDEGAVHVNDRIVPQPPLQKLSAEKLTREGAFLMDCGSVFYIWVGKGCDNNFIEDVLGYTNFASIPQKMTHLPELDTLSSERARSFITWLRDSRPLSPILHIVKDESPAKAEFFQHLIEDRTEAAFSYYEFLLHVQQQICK

[6] = molecular target: T6, HeLa cell extract proteins (Homo sapiens, UniProt P25789)
T6 construct: endogenous in cells; host or cells: HeLa cell extract
T6 sequence (P25789 1-261): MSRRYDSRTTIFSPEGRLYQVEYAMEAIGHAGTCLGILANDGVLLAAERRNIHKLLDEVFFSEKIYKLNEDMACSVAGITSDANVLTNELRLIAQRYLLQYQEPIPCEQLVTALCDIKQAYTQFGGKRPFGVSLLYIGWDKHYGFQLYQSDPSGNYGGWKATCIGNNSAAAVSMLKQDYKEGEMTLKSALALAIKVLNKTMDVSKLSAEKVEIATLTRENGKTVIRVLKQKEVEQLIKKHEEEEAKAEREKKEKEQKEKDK

[7] = molecular target: T7, HeLa cell extract proteins (Homo sapiens, UniProt P62979)
T7 construct: endogenous in cells; host or cells: HeLa cell extract

T4 sequence (P60900 whole entry): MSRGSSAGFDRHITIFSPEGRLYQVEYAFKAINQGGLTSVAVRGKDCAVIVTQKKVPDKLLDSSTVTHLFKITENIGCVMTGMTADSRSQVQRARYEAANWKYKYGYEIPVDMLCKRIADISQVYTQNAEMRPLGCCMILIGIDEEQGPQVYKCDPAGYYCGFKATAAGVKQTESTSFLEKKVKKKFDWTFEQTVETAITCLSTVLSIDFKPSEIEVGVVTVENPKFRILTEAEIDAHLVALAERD
T1 sequence (Q92616 whole entry): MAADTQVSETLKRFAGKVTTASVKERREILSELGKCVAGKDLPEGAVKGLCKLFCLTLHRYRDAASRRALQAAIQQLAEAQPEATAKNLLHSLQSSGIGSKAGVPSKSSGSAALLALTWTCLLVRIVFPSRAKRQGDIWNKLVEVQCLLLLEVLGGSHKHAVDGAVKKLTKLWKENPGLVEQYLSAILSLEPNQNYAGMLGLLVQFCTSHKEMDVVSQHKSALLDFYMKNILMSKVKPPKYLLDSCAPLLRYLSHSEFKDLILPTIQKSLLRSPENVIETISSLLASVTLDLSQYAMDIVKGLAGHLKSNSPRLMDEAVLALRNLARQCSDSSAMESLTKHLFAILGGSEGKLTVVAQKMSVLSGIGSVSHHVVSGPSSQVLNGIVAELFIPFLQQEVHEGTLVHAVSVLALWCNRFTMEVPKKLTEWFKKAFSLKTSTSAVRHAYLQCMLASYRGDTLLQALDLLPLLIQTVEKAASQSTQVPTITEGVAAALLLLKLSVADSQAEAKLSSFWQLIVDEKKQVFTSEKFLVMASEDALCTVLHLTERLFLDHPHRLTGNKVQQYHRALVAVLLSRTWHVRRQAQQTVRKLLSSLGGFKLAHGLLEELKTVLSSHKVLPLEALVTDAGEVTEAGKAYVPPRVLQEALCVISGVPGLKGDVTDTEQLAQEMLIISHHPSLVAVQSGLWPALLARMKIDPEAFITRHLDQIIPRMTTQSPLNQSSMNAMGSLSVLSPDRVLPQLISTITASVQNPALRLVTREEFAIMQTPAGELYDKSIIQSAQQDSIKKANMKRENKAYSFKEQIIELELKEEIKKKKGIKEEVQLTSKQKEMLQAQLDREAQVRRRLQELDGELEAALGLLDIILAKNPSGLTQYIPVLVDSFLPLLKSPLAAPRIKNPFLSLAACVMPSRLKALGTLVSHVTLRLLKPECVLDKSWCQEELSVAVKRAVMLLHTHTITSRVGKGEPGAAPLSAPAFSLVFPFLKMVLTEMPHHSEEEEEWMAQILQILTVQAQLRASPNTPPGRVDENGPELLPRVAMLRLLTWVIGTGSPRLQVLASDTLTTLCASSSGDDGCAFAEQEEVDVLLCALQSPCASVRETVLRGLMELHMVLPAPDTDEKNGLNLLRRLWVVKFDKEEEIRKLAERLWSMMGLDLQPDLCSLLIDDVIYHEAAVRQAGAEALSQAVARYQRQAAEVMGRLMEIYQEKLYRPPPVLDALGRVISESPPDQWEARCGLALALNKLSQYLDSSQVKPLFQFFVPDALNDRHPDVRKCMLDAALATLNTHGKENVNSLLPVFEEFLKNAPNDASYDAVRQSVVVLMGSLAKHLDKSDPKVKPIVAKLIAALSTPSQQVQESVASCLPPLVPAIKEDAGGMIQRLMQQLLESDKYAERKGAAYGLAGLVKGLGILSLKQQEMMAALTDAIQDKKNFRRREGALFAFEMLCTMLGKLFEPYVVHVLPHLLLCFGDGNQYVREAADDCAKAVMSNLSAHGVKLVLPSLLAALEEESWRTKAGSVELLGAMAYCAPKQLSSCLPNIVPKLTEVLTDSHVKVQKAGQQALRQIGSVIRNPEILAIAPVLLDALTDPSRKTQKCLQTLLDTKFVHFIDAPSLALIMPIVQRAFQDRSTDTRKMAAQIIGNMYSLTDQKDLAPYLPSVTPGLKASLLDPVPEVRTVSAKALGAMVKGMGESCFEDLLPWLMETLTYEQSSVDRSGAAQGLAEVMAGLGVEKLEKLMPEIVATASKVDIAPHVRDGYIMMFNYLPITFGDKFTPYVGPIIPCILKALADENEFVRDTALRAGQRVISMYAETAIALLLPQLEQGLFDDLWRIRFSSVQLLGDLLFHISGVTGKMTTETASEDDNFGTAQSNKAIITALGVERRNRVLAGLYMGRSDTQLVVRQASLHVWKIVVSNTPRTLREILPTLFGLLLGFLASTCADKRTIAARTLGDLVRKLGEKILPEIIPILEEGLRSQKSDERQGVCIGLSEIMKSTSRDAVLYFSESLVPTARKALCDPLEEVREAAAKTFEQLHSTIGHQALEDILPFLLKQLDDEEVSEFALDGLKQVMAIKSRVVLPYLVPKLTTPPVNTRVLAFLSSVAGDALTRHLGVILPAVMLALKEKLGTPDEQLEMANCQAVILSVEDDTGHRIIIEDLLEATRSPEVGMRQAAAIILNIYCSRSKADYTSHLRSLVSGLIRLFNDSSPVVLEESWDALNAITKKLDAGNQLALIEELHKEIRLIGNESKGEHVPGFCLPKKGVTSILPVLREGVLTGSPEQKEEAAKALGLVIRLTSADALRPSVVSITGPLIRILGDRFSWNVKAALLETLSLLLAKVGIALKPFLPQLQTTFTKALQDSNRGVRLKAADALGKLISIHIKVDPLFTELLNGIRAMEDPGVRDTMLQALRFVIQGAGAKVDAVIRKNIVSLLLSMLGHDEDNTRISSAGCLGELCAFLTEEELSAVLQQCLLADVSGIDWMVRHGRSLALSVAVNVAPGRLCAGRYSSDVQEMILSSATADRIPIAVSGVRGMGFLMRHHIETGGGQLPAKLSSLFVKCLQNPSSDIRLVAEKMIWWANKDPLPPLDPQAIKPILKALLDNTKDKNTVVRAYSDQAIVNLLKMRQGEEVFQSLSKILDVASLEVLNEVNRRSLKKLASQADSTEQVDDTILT

Row | Structure (SMILES) | fold changes relative to vehicle control ([1]; HeLa, protein GCN1L1) | fold changes relative to vehicle control ([2]; HeLa, protein CNN2) | fold changes relative to vehicle control ([3]; HeLa, protein ATAD3A) | fold changes relative to vehicle control ([4]; protein PSMA6, HeLa) | fold changes relative to vehicle control ([5]; protein SEC24B, HeLa) | fold changes relative to vehicle control ([6]; protein PSMA4, HeLa) | fold changes relative to vehicle control ([7]; protein RPS27A, HeLa) | fold changes relative to vehicle control [1] | fold changes relative to vehicle control [2] | fold changes relative to vehicle control [3] | fold changes relative to vehicle control [4] | fold changes relative to vehicle control [5] | fold changes relative to vehicle control [6] | fold changes relative to vehicle control [7] | fold changes relative to vehicle control ([1]; HeLa, captured protein GCN1L1) | fold changes relative to vehicle control ([2]; HeLa, captured protein CNN2) | fold changes relative to vehicle control ([4]; HeLa, protein PSMA6) | fold changes relative to vehicle control ([5]; HeLa, captured protein SEC24B) | fold changes relative to vehicle control ([6]; HeLa, captured protein PSMA4) | fold changes relative to vehicle control ([7]; HeLa, protein RPS27A (UBIQUITIN AND RIBOSOMAL PROTEIN S27A PRECURSOR))
1 | Nc1nc2cccc(-c3ccccc3)c2n1Cc1ccc(Cl)c(Cl)c1 [compound 3] | 1.16 | 1.07 | 1.05 | 1.02 | 1.01 | 1.06 | 1.01 |  |  |  |  |  |  |  |  |  |  |  |  | 
2 | Nc1nc2[nH]cc(CCc3ccc(C(=O)N[C@@H](CCC(=O)O)C(=O)O)cc3)c2c(=O)[nH]1 [PTX, pemetrexed] |  |  |  |  |  |  |  | 1.02 | 0.96 | 1.12 | 1 | 0.94 | 1.02 | 1.29 |  |  |  |  |  | 
3 | Nc1nc2c(c(=O)[nH]1)N(C=O)C(CNc1ccc(C(=O)N[C@@H](CCC(=O)O)C(=O)O)cc1)CN2 (stereo partly shown) [LEU, leucovorin] |  |  | 0.98 |  |  |  |  |  |  |  |  |  |  | 1.29 | 1.04 | 0.97 | 1.02 | 1.06 | 1.05 | 
4 | CCCCCCOc1cccc(Cc2cnc(N)nc2N)c1 [compound 2] | 1.14 | 0.95 | 1.15 | 1.27 | 1.15 | 1.19 | 1.5 |  |  |  |  |  |  |  |  |  |  |  |  | 
5 | NCCOCCOCC(=O)Nc1nc2ncc(CNc3ccc(C(=O)NC(CCC(=O)O)C(=O)O)cc3)nc2c(=O)[nH]1 (stereo not shown) [compound 6] |  |  | 1.17 |  |  |  |  |  |  |  |  |  |  |  | 1.15 | 0.93 | 1 | 0.94 | 1.06 | 1.51
6 | CCCCCCOc1ccc(Cc2cnc(N)nc2N)cc1 [compound 1] | 1.07 | 0.81 | 1.13 | 1.1 | 1.05 | 1.1 | 1.24 |  |  |  |  |  |  |  |  |  |  |  |  | 
7 | NCCCNc1ccc(C(=O)NC(CCC(=O)O)C(=O)O)cc1 (stereo not shown) [compound 7] |  |  | 1.13 |  |  |  |  |  |  |  |  |  |  | 1.22 | 1.15 | 1.33 | 1 | 1.06 | 1.03 | 
